Here are results for ten molecules from ChEMBL document CHEMBL1201862, “PubChem BioAssay data set” (2004).

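Protocol summary: plate cells (96-well), add compound at 5 concentrations, incubate 48 h, interpolate endpoints linearly. GI50: concentration for 50% inhibition of growth.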 Active and inactive are the calls of the source. Rule as the data show it: active = GI50 up to about 1.1 µM and inactive = higher.

Test systems include OVCAR-3; NCI-H23; HCT-15; DU-145; 786-0; CCRF-CEM; SF-295; HOP-92; MDA-N; SN12C; MDA-MB-231; NCI/ADR-RES; HOP-62; HL-60; SF-268; SNB-19; UO-31; SW-620; HT-29; RPMI-8226.
Holding throughout (assay): DTP human tumour cell line panel, 48 h

Regarding `C=C1c2nc3ccccc3n2C=C(c2ccc(Cl)cc2)N1c1ccc(OCCN2CCCCC2)cc1`, the GI50 in the test with OVCAR-3 was > 45 µM (inactive); in the test on NCI-H23, > 45 µM (inactive); in the test on HCT-15, more than 45 µM; in the test on DU-145, > 45 µM (inactive); in the test with 786-0 it was > 45 µM (inactive); in the test on CCRF-CEM, > 45 µM (inactive). The GI50 in the test on SF-295 was > 45 µM (inactive); with HOP-92, > 45 µM (inactive); in the test on MDA-N, 6.32 µM (inactive); in the test on SN12C it was > 45 µM (inactive); in the test with MDA-MB-231 it was > 45 µM (inactive); with NCI/ADR-RES it was > 45 µM (inactive). The GI50 was > 45 µM (inactive) in the test with HOP-62; 5.01 µM (inactive) with HL-60; 1.63 µM (inactive) in the test on SF-268; > 45 µM (inactive) with SNB-19; > 45 µM (inactive) in the test on UO-31; > 45 µM (inactive) in the test on SW-620. Moreover, the GI50 is > 45 µM (inactive) with HT-29 and 2.43 µM (inactive) in the test on RPMI-8226.
For the molecule `Cn1c(=O)c2c(ncn2CN2CCN(Cn3cnc4c3c(=O)n(C)c(=O)n4C)CC2)n(C)c1=O`, the GI50 is > 100 µM (inactive) in the test on OVCAR-3; 65.9 µM (inactive) in the test with NCI-H23; 27.6 µM in the test with HCT-15; 45.7 µM (inactive) in the test with DU-145; 29 µM (inactive) in the test with 786-0; 21.9 µM (inactive) in the test on CCRF-CEM. Also, the GI50 is > 100 µM (inactive) in the test with SF-295; 52 µM (inactive) in the test with HOP-92; 50.2 µM (inactive) with MDA-N; 46.9 µM (inactive) with SN12C; > 100 µM (inactive) with MDA-MB-231; > 100 µM (inactive) in the test with NCI/ADR-RES. The GI50 was > 100 µM (inactive) in the test with HOP-62; 23 µM (inactive) in the test on HL-60; 50.9 µM (inactive) in the test on SF-268; > 100 µM (inactive) in the test with SNB-19; 46.1 µM (inactive) in the test on UO-31; 23.2 µM (inactive) in the test with SW-620. The results for the GI50 in the test with HT-29 and with RPMI-8226 were 26.2 µM (inactive) and 22.7 µM (inactive), respectively.
As for `O=C(Nc1nc(C23CC4CC(CC(C4)C2)C3)cs1)c1cc2ccccc2oc1=O`, the GI50 in the test with OVCAR-3 was > 100 µM (inactive); with NCI-H23, > 100 µM (inactive); in the test on HCT-15, more than 100 µM; in the test with DU-145 it was > 100 µM (inactive); in the test with 786-0, > 100 µM (inactive); in the test with CCRF-CEM, > 100 µM (inactive). Further, the GI50 with SF-295, in the test on HOP-92, with MDA-N, with SN12C, in the test with MDA-MB-231 and in the test with NCI/ADR-RES was > 100 µM (inactive) each time. In addition, the GI50 in the test with HOP-62, in the test on HL-60, with SF-268, with SNB-19, with UO-31 and with SW-620 was > 100 µM (inactive) throughout. The GI50 in the test with HT-29 and with RPMI-8226 was > 100 µM (inactive) each time.
As for `COC1(OC)CC(CO)(CNc2cc(Cl)nc(N)n2)C1`, the GI50 with OVCAR-3 was > 100 µM (inactive); in the test on NCI-H23, > 100 µM (inactive); in the test on HCT-15, more than 100 µM; with DU-145 it was > 100 µM (inactive); in the test with 786-0 it was > 100 µM (inactive); in the test on CCRF-CEM, > 100 µM (inactive). In addition, the GI50 with SF-295 is > 100 µM (inactive); in the test on HOP-92, > 10 µM (inactive); in the test on MDA-N, > 100 µM (inactive); with SN12C it was > 100 µM (inactive); in the test with MDA-MB-231 it was > 100 µM (inactive); with NCI/ADR-RES it was > 100 µM (inactive). Also, the GI50 in the test on HOP-62, with HL-60, with SF-268, with SNB-19, in the test on UO-31 and with SW-620 was > 100 µM (inactive) in each case. The GI50 in the test on HT-29 and in the test with RPMI-8226 was > 100 µM (inactive) in each case.
For the molecule `CCCNC(=O)c1cc(OC)c(OC)cc1NC(=O)C12CC3CC(CC(C3)C1)C2`, the GI50 in the test on OVCAR-3 is 19 µM (inactive); in the test with NCI-H23 it was 16.8 µM (inactive); in the test on HCT-15, 17 µM; in the test on DU-145, 21.2 µM (inactive); with 786-0, 17 µM (inactive); in the test with CCRF-CEM, 28.2 µM (inactive). For the same molecule, the GI50 in the test on SF-295 was 18.7 µM (inactive); with HOP-92 it was 18.3 µM (inactive); in the test on MDA-N, 16.7 µM (inactive); in the test on SN12C, 16.1 µM (inactive); in the test on MDA-MB-231, 16.9 µM (inactive); in the test with NCI/ADR-RES, 19 µM (inactive). Further, the GI50 in the test on HOP-62 was 19.7 µM (inactive); in the test on HL-60, 32.7 µM (inactive); with SF-268, 17.6 µM (inactive); in the test with SNB-19, 16.4 µM (inactive); with UO-31, 16.6 µM (inactive); in the test with SW-620 it was > 100 µM (inactive). Also, the values for the GI50 in the test with HT-29 and with RPMI-8226 were 18.2 µM (inactive) and 32.4 µM (inactive), respectively.
For `N#C/C(=C\c1ccc([N+](=O)[O-])o1)c1n[nH]c(Cc2ccccc2)n1`, the GI50 is 1.64 µM (inactive) in the test with OVCAR-3; 1.21 µM (inactive) with NCI-H23; 0.281 µM in the test on HCT-15; 1.57 µM (inactive) in the test on DU-145; 0.847 µM (active) in the test with 786-0; 0.265 µM (active) in the test on CCRF-CEM. For the same molecule, the GI50 was 7.26 µM (inactive) in the test on SF-295; 2.77 µM (inactive) with HOP-92; 1 µM (active) in the test with MDA-N; 1.49 µM (inactive) in the test with SN12C; 1.57 µM (inactive) in the test with MDA-MB-231; 2.79 µM (inactive) with NCI/ADR-RES. The GI50 was 2.62 µM (inactive) in the test with HOP-62; 3.06 µM (inactive) with HL-60; 0.641 µM (active) with SF-268; 4.93 µM (inactive) with SNB-19; 2.66 µM (inactive) in the test with UO-31; 0.277 µM (active) in the test on SW-620. Besides, the GI50 in the test on HT-29 was 1.05 µM (active); in the test with RPMI-8226, 0.335 µM (active).
For `CCOC(=O)/C=C(/C(=O)OCC)n1cc(C)c(=O)n(Cc2cn(COCCOC(C)=O)nn2)c1=O`, the GI50 in the test on OVCAR-3 was 24.7 µM (inactive); in the test on NCI-H23, 6.18 µM (inactive); with HCT-15, 20.7 µM; in the test with DU-145, 36.3 µM (inactive); in the test with 786-0 it was 20 µM (inactive); in the test on CCRF-CEM, 0.984 µM (active). Besides, the GI50 in the test on SF-295 is > 100 µM (inactive); in the test with HOP-92, 13.2 µM (inactive); in the test with MDA-N, 38.3 µM (inactive); in the test on SN12C, 25.8 µM (inactive); in the test on MDA-MB-231, 28.4 µM (inactive); in the test on NCI/ADR-RES it was 21 µM (inactive). In addition, the GI50 is > 100 µM (inactive) in the test on HOP-62; 8.57 µM (inactive) in the test with HL-60; 19.5 µM (inactive) with SF-268; > 52.6 µM (inactive) in the test on SNB-19; 1.07 µM (active) with UO-31; 6.84 µM (inactive) in the test on SW-620. Also, the GI50 in the test on HT-29 is 16.1 µM (inactive); with RPMI-8226 it was 17.9 µM (inactive).
Take `CCCCCCCCCCCC[C@@H](O)[C@H]1CC[C@H]([C@H](O)CCCC[C@H](O)CCCCC[C@@H](O)CC2=C[C@H](C)OC2=O)O1`: the GI50 in the test on OVCAR-3 is 0.569 µM (active); in the test on NCI-H23, 0.034 µM (active); with HCT-15, 2.39 µM; in the test with DU-145 it was 6.4 µM (inactive); with 786-0, 2.82 µM (inactive); in the test with CCRF-CEM, 1.18 µM (inactive). In addition, the GI50 was < 0.0486 µM (active) in the test on SF-295; 2.34 µM (inactive) in the test with HOP-92; 2.08 µM (inactive) with MDA-N; 3.78 µM (inactive) with SN12C; 3.31 µM (inactive) in the test with MDA-MB-231; 1.25 µM (inactive) in the test with NCI/ADR-RES. Further, the GI50 in the test on HOP-62 is 2.59 µM (inactive); with HL-60, 0.103 µM (active); in the test with SF-268, 1.86 µM (inactive); in the test with SNB-19, 2.83 µM (inactive); in the test on UO-31, 1.05 µM (active); with SW-620, 3.22 µM (inactive). Also, the values for the GI50 with HT-29 and in the test with RPMI-8226 were 2.1 µM (inactive) and 0.362 µM (active), respectively.
`CCCCN(CCCC)CCC(O)c1cc2c(Cl)cc(Cl)cc2c2cc(C(F)(F)F)ccc12` (stereo not given): the GI50 in the test with OVCAR-3 was 11.6 µM (inactive); in the test with NCI-H23, 12.4 µM (inactive); in the test with HCT-15, 5.4 µM; in the test on DU-145, 10.3 µM (inactive); in the test on 786-0 it was 12.9 µM (inactive); in the test on CCRF-CEM, 11.2 µM (inactive). The GI50 with SF-295 is 12.4 µM (inactive); in the test on HOP-92, 1.32 µM (inactive); in the test on MDA-N it was 12.7 µM (inactive); in the test with SN12C, 5.05 µM (inactive); in the test with MDA-MB-231, 2.52 µM (inactive); with NCI/ADR-RES, 12.1 µM (inactive). Besides, the GI50 is 10 µM (inactive) in the test on HOP-62; 5.9 µM (inactive) with HL-60; 11.7 µM (inactive) with SF-268; 19.1 µM (inactive) in the test on SNB-19; 4.2 µM (inactive) in the test on UO-31; 11.3 µM (inactive) in the test with SW-620. Further, the GI50 in the test with HT-29 is 13.6 µM (inactive); with RPMI-8226 it was 8.36 µM (inactive).
For `Clc1ccc2c(NCCCCN3OC3c3ccccc3)ccnc2c1` (stereo not given), the GI50 in the test with OVCAR-3 was 4.45 µM (inactive); in the test on NCI-H23, 15.8 µM (inactive); in the test on HCT-15, 10.4 µM; with DU-145 it was 10.4 µM (inactive); in the test on 786-0, 2.47 µM (inactive); in the test on CCRF-CEM, 2.15 µM (inactive). Also, the GI50 in the test with SF-295 was 12.2 µM (inactive); in the test on HOP-92, 10.5 µM (inactive); in the test on MDA-N it was 5.42 µM (inactive); in the test with SN12C, 11.1 µM (inactive); in the test with MDA-MB-231 it was 2.27 µM (inactive); with NCI/ADR-RES, 18.5 µM (inactive). Further, the GI50 was 4.75 µM (inactive) in the test on HOP-62; < 0.01 µM (active) in the test with HL-60; 8.07 µM (inactive) with SF-268; 6.89 µM (inactive) with SNB-19; 14.8 µM (inactive) with UO-31; 5.21 µM (inactive) in the test with SW-620. Also, the GI50 in the test with HT-29 was 3.16 µM (inactive); with RPMI-8226 it was 2.92 µM (inactive).

Usually GI50 stands for the concentration at which growth is held to half of that of the control.
